Patent US20240002374A1, “5-MEMBERED HETEROARYLAMINOSULFONAMIDES FOR TREATING CONDITIONS MEDIATED BY DEFICIENT CFTR ACTIVITY” (Genzyme Corporation, priority 2019, published 2024)

What follows are compounds tested against T1, CFTR (primary human bronchial epithelial cells from a ΔF508 homozygous CF donor, CF-HBE cells) (Homo sapiens, UniProt P13569, DEL508-508) (assay: TECC24 recording of CFTR-mediated transepithelial chloride transport (TECC24 AUC fold over DMSO @ 3 μM)). Conditions: 3 uM test agent; CF-HBE cells (ΔF508 homozygous) incubated 48 h; ratio of test agent AUC of forskolin-stimulated IEQ to vehicle (DMSO) AUC.
T1 construct: Primary human bronchial epithelial cells from a ΔF508 homozygous CF donor; host or cells: primary human bronchial epithelial cells (CF-HBE) from a ΔF508 homozygous CF donor
Format: cell-based
Outline: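 ΔF508-homozygous CF-HBE cells incubated 48 h at 36.5° C with test agent (3 μM) in IL-13-containing medium, then recorded in current clamp with benzamil (10 μM), forskolin (10 μM) and bumetanide (20 μM). AUC of equivalent Cl− current between forskolin and bumetanide expressed as fold over DMSO vehicle.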

T1 sequence (P13569 with tags, fused parts or gaps DEL508-508): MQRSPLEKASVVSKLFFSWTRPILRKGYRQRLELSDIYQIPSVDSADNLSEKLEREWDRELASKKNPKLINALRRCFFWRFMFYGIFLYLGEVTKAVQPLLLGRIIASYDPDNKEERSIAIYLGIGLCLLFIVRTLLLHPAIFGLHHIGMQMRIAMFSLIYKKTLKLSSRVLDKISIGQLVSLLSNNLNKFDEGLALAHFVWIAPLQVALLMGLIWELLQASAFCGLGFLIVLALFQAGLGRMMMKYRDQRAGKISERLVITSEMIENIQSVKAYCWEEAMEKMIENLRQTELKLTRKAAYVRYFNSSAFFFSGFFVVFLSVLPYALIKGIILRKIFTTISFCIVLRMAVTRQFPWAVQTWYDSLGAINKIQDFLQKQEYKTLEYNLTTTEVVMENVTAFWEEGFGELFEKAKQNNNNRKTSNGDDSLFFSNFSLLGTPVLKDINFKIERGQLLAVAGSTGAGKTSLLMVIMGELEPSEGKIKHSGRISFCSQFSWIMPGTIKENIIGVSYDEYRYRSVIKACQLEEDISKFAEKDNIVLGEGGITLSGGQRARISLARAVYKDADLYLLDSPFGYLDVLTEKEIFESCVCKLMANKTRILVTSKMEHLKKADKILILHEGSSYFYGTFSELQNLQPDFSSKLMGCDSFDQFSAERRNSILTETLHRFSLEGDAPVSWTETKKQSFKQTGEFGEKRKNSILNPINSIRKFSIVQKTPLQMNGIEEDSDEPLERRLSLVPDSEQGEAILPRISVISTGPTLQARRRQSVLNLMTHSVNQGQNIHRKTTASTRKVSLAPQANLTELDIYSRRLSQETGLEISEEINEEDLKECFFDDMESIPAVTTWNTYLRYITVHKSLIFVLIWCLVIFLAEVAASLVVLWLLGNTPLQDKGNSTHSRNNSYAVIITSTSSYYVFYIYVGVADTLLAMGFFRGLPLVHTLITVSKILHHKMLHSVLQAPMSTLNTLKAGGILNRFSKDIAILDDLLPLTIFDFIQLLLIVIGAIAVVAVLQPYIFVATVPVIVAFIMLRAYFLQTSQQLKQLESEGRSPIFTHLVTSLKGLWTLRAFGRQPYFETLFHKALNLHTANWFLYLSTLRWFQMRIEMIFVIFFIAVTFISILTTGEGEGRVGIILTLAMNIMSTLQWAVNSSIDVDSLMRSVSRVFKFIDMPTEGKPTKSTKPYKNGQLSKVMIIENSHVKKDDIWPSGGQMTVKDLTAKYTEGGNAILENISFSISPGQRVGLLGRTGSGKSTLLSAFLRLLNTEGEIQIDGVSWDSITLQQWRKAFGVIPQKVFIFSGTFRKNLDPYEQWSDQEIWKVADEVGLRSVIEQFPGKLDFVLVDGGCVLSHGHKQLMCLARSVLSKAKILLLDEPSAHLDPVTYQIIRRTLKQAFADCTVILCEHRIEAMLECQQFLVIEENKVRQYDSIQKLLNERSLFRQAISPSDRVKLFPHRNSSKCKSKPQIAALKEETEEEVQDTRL

SMILES | TECC AUC vs. DMSO @ 3 uM
Cc1cccc(C)c1-c1nc(NS(=O)(=O)c2cccc([S+](C)[O-])c2)sc1-c1cc(F)cc(OCCC(C)(C)C)c1 (stereo not shown) [Example 259, N-[5-[3-(3,3-dimethylbutoxy)-5-fluorophenyl]-4-(2,6-dimethylphenyl)-1,3-thiazol-2-yl]-3-methylsulfinylbenzenesulfonamide] | B (“B” refers to AUC 2-5)
Cc1cccc(C(F)(F)F)c1-c1nc(NS(=O)(=O)c2cccc(N)n2)sc1-c1cc(F)cc(OCCC(C)(C)C)c1 [Example 312, 6-amino-N-[5-[3-(3,3-dimethylbutoxy)-5-fluorophenyl]-4-[2-methyl-6-(trifluoromethyl)phenyl]-1,3-thiazol-2-yl]pyridine-2-sulfonamide] | A (“A” refers to AUC > 5)
Cc1cccc(OC(C)C)c1-c1nc(NS(=O)(=O)c2cccc(N(C)C)n2)sc1-c1cccc(OCCC(C)(C)C)c1 [Example 329, 6-(dimethylamino)-N-[5-[3-(3,3-dimethylbutoxy)phenyl]-4-(2-methyl-6-propan-2-yloxyphenyl)-1,3-thiazol-2-yl]pyridine-2-sulfonamide] | A (“A” refers to AUC > 5)
Cc1cccc(C)c1-c1nc(NS(=O)(=O)c2cccc(N(C)C)n2)sc1-c1cccc(OCCC(C)(C)C)c1 [Example 334, 6-(dimethylamino)-N-[5-[3-(3,3-dimethylbutoxy)phenyl]-4-(2,6-dimethylphenyl)-1,3-thiazol-2-yl]pyridine-2-sulfonamide] | A (“A” refers to AUC > 5)
Cc1cccc(C)c1-c1nc(NS(=O)(=O)c2cccc(N(C)C)n2)sc1-c1cccc(C2CCC(C)(C)C2)c1 (stereo not shown) [Example 342, 6-(dimethylamino)-N-[5-[3-(3,3-dimethylcyclopentyl)phenyl]-4-(2,6-dimethylphenyl)-1,3-thiazol-2-yl]pyridine-2-sulfonamide] | A (“A” refers to AUC > 5)
CC(C)c1ccccc1-c1nc(NS(=O)(=O)c2cccc(N)n2)sc1N1CCOC2(CCC(C)(C)C2)C1 (stereo not shown) [Example 349, 6-amino-N-[5-(3,3-dimethyl-6-oxa-9-azaspiro[4.5]decan-9-yl)-4-(2-propan-2-ylphenyl)-1,3-thiazol-2-yl]pyridine-2-sulfonamide] | A (“A” refers to AUC > 5)
Cc1cccc(C)c1-c1nc(NS(=O)(=O)c2cccc(N(C)C)n2)sc1-c1cccc(OC2CCC(C)(C)C2)c1 (stereo not shown) [Example 358, 6-(dimethylamino)-N-[5-[3-(3,3-dimethylcyclopentyl)oxyphenyl]-4-(2,6-dimethylphenyl)-1,3-thiazol-2-yl]pyridine-2-sulfonamide] | A (“A” refers to AUC > 5)
CC(C)c1ccccc1-c1nc(NS(=O)(=O)c2ccnc(N)c2)sc1-c1cccc(OCCC(C)(C)C)c1 [Example 362, 2-amino-N-[5-[3-(3,3-dimethylbutoxy)phenyl]-4-(2-propan-2-ylphenyl)-1,3-thiazol-2-yl]pyridine-4-sulfonamide] | A (“A” refers to AUC > 5)
Cc1cccc(C)c1-c1nc(NS(=O)(=O)c2ccccc2)sc1C1=CC(CC(C)(C)C)OCC1 (stereo not shown) [Example 370, N-[4-(2,6-dimethylphenyl)-5-[6-(2,2-dimethylpropyl)-3,6-dihydro-2H-pyran-4-yl]-1,3-thiazol-2-yl]benzenesulfonamide] | A (“A” refers to AUC > 5)
CC(C)Oc1cc(Cl)ccc1-c1nc(NS(=O)(=O)c2ccccc2)sc1-c1ccc(OC(F)F)c(OCCC(C)(C)C)c1 [Example 380, N-[4-(4-chloro-2-propan-2-yloxyphenyl)-5-[4-(difluoromethoxy)-3-(3,3-dimethylbutoxy)phenyl]-1,3-thiazol-2-yl]benzenesulfonamide] | A (“A” refers to AUC > 5)
CC(C)Oc1cc(Cl)ccc1-c1nc(NS(=O)(=O)c2cccc(N)c2F)sc1-c1cccc(OCC(F)(F)C(C)(C)C)c1 [Example 382] | A (“A” refers to AUC > 5)
CNc1ccc(F)c(S(=O)(=O)Nc2nc(-c3c(C)cccc3C(F)(F)F)c(-c3cccc(OCCC(C)(C)C)c3)s2)c1 [Example 389, N-[5-[3-(3,3-dimethylbutoxy)phenyl]-4-[2-methyl-6-(trifluoromethyl)phenyl]-1,3-thiazol-2-yl]-2-fluoro-5-(methylamino)benzenesulfonamide] | A (“A” refers to AUC > 5)
Cc1cccc(C)c1-c1nc(NS(=O)(=O)c2ccccc2)sc1N1C[C@H](OC(C)(C)C)C[C@H]1C [Example 402, N-[4-(2,6-dimethylphenyl)-5-[(2R,4R)-2-methyl-4-[(2-methylpropan-2-yl)oxy]pyrrolidin-1-yl]-1,3-thiazol-2-yl]benzenesulfonamide] | A (“A” refers to AUC > 5)
CC(C)c1ccccc1-c1nc(NS(=O)(=O)c2cccc(N[C@H](C)C(F)(F)F)c2)sc1-c1cccc(OCC(C)(C)C)c1 [Example 429, N-[5-[3-(2,2-dimethylpropoxy)phenyl]-4-(2-propan-2-ylphenyl)-1,3-thiazol-2-yl]-3-[[(2R)-1,1,1-trifluoropropan-2-yl]amino]benzenesulfonamide] | A (“A” refers to AUC > 5)
COC(=O)C1CCCC(Nc2cccc(S(=O)(=O)Nc3nc(-c4c(C)cccc4C)c(-c4cccc(OCCC(C)(C)C)c4)s3)n2)C1 (stereo not shown) [Example 435, methyl 3-[[6-[[5-[3-(3,3-dimethylbutoxy)phenyl]-4-(2,6-dimethylphenyl)-1,3-thiazol-2-yl]sulfamoyl]pyridin-2-yl]amino]cyclohexane-1-carboxylate] | A (“A” refers to AUC > 5)
CC(C)c1ccccc1-c1nc(NS(=O)(=O)c2cccc(NC(C)C(F)(F)F)c2)sc1-n1ccc(OCC(C)(C)C(F)(F)F)n1 (stereo not shown) [Example 471, N-[4-(2-propan-2-ylphenyl)-5-[3-(3,3,3-trifluoro-2,2-dimethylpropoxy)pyrazol-1-yl]-1,3-thiazol-2-yl]-3-(1,1,1-trifluoropropan-2-ylamino)benzenesulfonamide] | B (“B” refers to AUC 2-5)
CC(C)c1ccccc1-c1nc(NS(=O)(=O)c2cccc(N)c2)sc1-c1cccc(OCC(F)(F)C(C)(C)C)c1 [Example 490, 3-amino-N-[5-[3-(2,2-difluoro-3,3-dimethylbutoxy)phenyl]-4-(2-propan-2-ylphenyl)-1,3-thiazol-2-yl]benzenesulfonamide] | B (“B” refers to AUC 2-5)
Cc1cccc(C)c1-c1nc(NS(=O)(=O)c2cn(C)nc2C)sc1N1CCOC2(CCC(OC(F)(F)F)C2)C1 (stereo not shown) [Example 491, N-[4-(2,6-dimethylphenyl)-5-[3-(trifluoromethoxy)-6-oxa-9-azaspiro[4.5]decan-9-yl]-1,3-thiazol-2-yl]-1,3-dimethylpyrazole-4-sulfonamide] | B (“B” refers to AUC 2-5)
Cc1cccc(C)c1-c1nc(NS(=O)(=O)c2cn(C)nc2C)sc1N1C[C@H](OC(C)(C)C)C[C@H]1C [Example 495, N-[4-(2,6-dimethylphenyl)-5-[(2R,4R)-2-methyl-4-[(2-methylpropan-2-yl)oxy]pyrrolidin-1-yl]-1,3-thiazol-2-yl]-1,3-dimethylpyrazole-4-sulfonamide] | B (“B” refers to AUC 2-5)
